In ChEMBL document CHEMBL1201861, “Genomics of Drug Sensitity in Cancer screening data, Wellcome Trust Sanger Institute”:
pIC50: −log10 of the molar value. “And” between values parts separate entries of the source, which are not always exact repeats. Equal entries are not always repeated. Where a SMILES comes first, the peptide text is derived from it. The star is where a group is joined. Cbz = O=C(OCc1ccccc1)*

Key:
Assay in all cases: cells
Ca-Ski = format: functional, cell-based; conditions: Homo sapiens;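 note: cell viability assay measuring inhibition of Ca-Ski cell growth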
Description: SANGER: Inhibition of human Ca-Ski cell growth in a cell viability assay.

DOK = format: functional, cell-based; conditions: Homo sapiens;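 note: cell viability assay read-out, values reflect inhibition of cell growth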
Description: SANGER: Inhibition of human DOK cell growth in a cell viability assay.

DU-145 = format: functional, cell-based; conditions: Homo sapiens
Description: SANGER: Inhibition of human DU-145 cell growth in a cell viability assay.

GP5d = format: functional, cell-based; conditions: Homo sapiens;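 note: growth inhibition of human GP5d cells, read out with a cell viability assay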
Description: SANGER: Inhibition of human GP5d cell growth in a cell viability assay.

HCC1569 = format: functional, cell-based; conditions: Homo sapiens;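 note: growth inhibition of human HCC1569 cells, read out with a cell viability assay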
Description: SANGER: Inhibition of human HCC1569 cell growth in a cell viability assay.

HO-1-N-1 = format: functional, cell-based; conditions: Homo sapiens;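 note: growth inhibition of human HO-1-N-1 cells, read out with a cell viability assay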
Description: SANGER: Inhibition of human HO-1-N-1 cell growth in a cell viability assay.

HT1197 = format: functional, cell-based, HT-1197; conditions: Homo sapiens
Description: SANGER: Inhibition of human HT-1197 cell growth in a cell viability assay.

HuP-T4 = format: functional, cell-based; conditions: Homo sapiens;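 note: cell viability assay measuring how much HuP-T4 cell growth is inhibited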
Description: SANGER: Inhibition of human HuP-T4 cell growth in a cell viability assay.

IGR-1 = format: functional, cell-based; conditions: Homo sapiens;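 note: growth inhibition of human IGR-1 cells, read out with a cell viability assay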
Description: SANGER: Inhibition of human IGR-1 cell growth in a cell viability assay.

IGROV-1 = format: functional, cell-based; conditions: Homo sapiens;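 note: reduction of IGROV-1 cell growth, read out with a viability assay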
Description: SANGER: Inhibition of human IGROV-1 cell growth in a cell viability assay.

KYSE-520 cell line = format: functional, cell-based; conditions: Homo sapiens;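 note: growth inhibition of human KYSE-520 cells, read out with a viability assay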
Description: SANGER: Inhibition of human KYSE-520 cell growth in a cell viability assay.

LU-99A = format: functional, cell-based; conditions: Homo sapiens;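 note: growth inhibition of LU-99A cells, read out with a cell viability assay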
Description: SANGER: Inhibition of human LU-99A cell growth in a cell viability assay.

M14 = format: functional, cell-based; conditions: Homo sapiens;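 note: growth inhibition of M14 cells, read out with a cell viability assay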
Description: SANGER: Inhibition of human M14 cell growth in a cell viability assay.

MDA-MB-231 = format: functional, cell-based; conditions: Homo sapiens
Description: SANGER: Inhibition of human MDA-MB-231 cell growth in a cell viability assay.

MFE-280 = format: functional, cell-based; conditions: Homo sapiens;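 note: growth inhibition of MFE-280 cells, determined with a cell viability readout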
Description: SANGER: Inhibition of human MFE-280 cell growth in a cell viability assay.

MOLT-13 = format: functional, cell-based; conditions: Homo sapiens;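 note: IC50 for suppression of MOLT-13 cell growth, read out with a cell viability assay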
Description: SANGER: Inhibition of human MOLT-13 cell growth in a cell viability assay.

NB14 = format: functional, cell-based, Homo sapiens;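 note: growth inhibition of NB14 cells measured with a cell viability assay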
Description: SANGER: Inhibition of human NB14 cell growth in a cell viability assay.

NCI-H1573 = format: functional, cell-based; conditions: Homo sapiens;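 note: growth inhibition of NCI-H1573 cells, read out with a cell viability assay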
Description: SANGER: Inhibition of human NCI-H1573 cell growth in a cell viability assay.

NCI-H1755 = format: functional, cell-based; conditions: Homo sapiens;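 note: cell viability readout used to measure growth inhibition of NCI-H1755 cells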
Description: SANGER: Inhibition of human NCI-H1755 cell growth in a cell viability assay.

NCI-H1993 = format: functional, cell-based; conditions: Homo sapiens;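 note: growth inhibition of the cancer cell line, assessed with a cell viability assay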
Description: SANGER: Inhibition of human NCI-H1993 cell growth in a cell viability assay.

NCI-H2087 = format: functional, cell-based; conditions: Homo sapiens;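 note: growth inhibition determined with a cell viability readout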
Description: SANGER: Inhibition of human NCI-H2087 cell growth in a cell viability assay.

NCI-H2342 = format: functional, cell-based; conditions: Homo sapiens;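 note: growth inhibition of the cancer cell line, determined with a cell viability assay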
Description: SANGER: Inhibition of human NCI-H2342 cell growth in a cell viability assay.

NCI-H292 = format: functional, cell-based; conditions: Homo sapiens;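 note: growth inhibition of NCI-H292 cells, read out with a cell viability assay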
Description: SANGER: Inhibition of human NCI-H292 cell growth in a cell viability assay.

NCI-H520 = format: functional, cell-based; conditions: Homo sapiens;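 note: growth inhibition of NCI-H520 cells, measured by a cell viability assay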
Description: SANGER: Inhibition of human NCI-H520 cell growth in a cell viability assay.

OAW-28 = format: functional, cell-based; conditions: Homo sapiens;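 note: growth inhibition of OAW-28 cells, read out with a cell viability assay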
Description: SANGER: Inhibition of human OAW-28 cell growth in a cell viability assay.

OVCAR-5 = format: functional, cell-based; conditions: Homo sapiens;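 note: growth inhibition of human OVCAR-5 cells, read out with a cell viability assay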
Description: SANGER: Inhibition of human OVCAR-5 cell growth in a cell viability assay.

RPMI-2650 = format: functional, cell-based; conditions: Homo sapiens
Description: SANGER: Inhibition of human RPMI-2650 cell growth in a cell viability assay.

RVH-421 = format: functional, cell-based; conditions: Homo sapiens
Description: SANGER: Inhibition of human RVH-421 cell growth in a cell viability assay.

S-117 = format: functional, cell-based; conditions: Homo sapiens
Description: SANGER: Inhibition of human S-117 cell growth in a cell viability assay.

SBC-5 = format: functional, cell-based; conditions: Homo sapiens;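 note: cell viability assay read-out, IC50 is the concentration that inhibits growth of the cells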
Description: SANGER: Inhibition of human SBC-5 cell growth in a cell viability assay.

SK-OV-3 = format: functional, cell-based; conditions: Homo sapiens;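 note: growth inhibition of SK-OV-3 human cells, read out with a cell viability assay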
Description: SANGER: Inhibition of human SK-OV-3 cell growth in a cell viability assay.

SNU-423 = format: functional, cell-based; conditions: Homo sapiens
Description: SANGER: Inhibition of human SNU-423 cell growth in a cell viability assay.

SW1088 = format: functional, cell-based; conditions: Homo sapiens;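 note: growth inhibition of human SW1088 cells, read out by a cell viability assay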
Description: SANGER: Inhibition of human SW1088 cell growth in a cell viability assay.

SW48 = format: functional, cell-based; conditions: Homo sapiens;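 note: growth inhibition of SW48 cells, read out with a cell viability assay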
Description: SANGER: Inhibition of human SW48 cell growth in a cell viability assay.

T47D = format: functional, cell-based; conditions: Homo sapiens;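 note: growth inhibition of human T47D cells, measured with a cell viability assay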
Description: SANGER: Inhibition of human T47D cell growth in a cell viability assay.

CWR22R = format: functional, cell-based; conditions: Homo sapiens, 22Rv1;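 note: growth inhibition of 22Rv1 cells, read out with a cell viability assay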
Description: SANGER: Inhibition of human 22RV1 cell growth in a cell viability assay.

639-V = format: functional, cell-based; conditions: Homo sapiens;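 note: growth inhibition of 639-V cells, read out with a cell viability assay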
Description: SANGER: Inhibition of human 639-V cell growth in a cell viability assay.

ASPC1 = format: functional, cell-based; conditions: Homo sapiens;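 note: growth inhibition of AsPC-1 cells, read out with a cell viability assay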
Description: SANGER: Inhibition of human AsPC-1 cell growth in a cell viability assay.

C32 = format: functional, cell-based; conditions: Homo sapiens;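 note: cell viability assay, with IC50 reflecting inhibition of C32 cell growth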
Description: SANGER: Inhibition of human C32 cell growth in a cell viability assay.

CAL-120 = format: functional, cell-based; conditions: Homo sapiens;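 note: cell growth inhibition, read out as cell viability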
Description: SANGER: Inhibition of human CAL-120 cell growth in a cell viability assay.

CAL-27 = format: functional, cell-based; conditions: Homo sapiens;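 note: Viability-based readout, IC50 reflecting inhibition of CAL-27 cell growth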
Description: SANGER: Inhibition of human CAL-27 cell growth in a cell viability assay.

CAL-62 = format: functional, cell-based; conditions: Homo sapiens;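 note: growth inhibition of CAL-62 cells, read out with a cell viability assay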
Description: SANGER: Inhibition of human CAL-62 cell growth in a cell viability assay.

UACC-62 = format: functional, cell-based; conditions: Homo sapiens;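 note: growth inhibition of human UACC-62 cells, read out by a cell viability assay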
Description: SANGER: Inhibition of human UACC-62 cell growth in a cell viability assay.

VMRC-RCZ = format: functional, cell-based; conditions: Homo sapiens;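 note: growth inhibition measured with a cell viability assay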
Description: SANGER: Inhibition of human VMRC-RCZ cell growth in a cell viability assay.

CHL-1 = format: functional, cell-based; conditions: Homo sapiens;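 note: cell growth inhibition, read out with a cell viability assay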
Description: SANGER: Inhibition of human CHL-1 cell growth in a cell viability assay.

EC-GI-10 = format: functional, cell-based, Homo sapiens
Description: SANGER: Inhibition of human EC-GI-10 cell growth in a cell viability assay.

K052 = format: functional, cell-based, Homo sapiens;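 note: Read-out from a cell viability assay, IC50 reflecting suppression of K052 cell growth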
Description: SANGER: Inhibition of human K052 cell growth in a cell viability assay.

NCI-H1417 = format: functional, cell-based, Homo sapiens;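 note: human NCI-H1417 cells, growth inhibition determined with a cell viability readout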
Description: SANGER: Inhibition of human NCI-H1417 cell growth in a cell viability assay.

NCI-H2081 = format: functional, cell-based, Homo sapiens;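 note: growth inhibition of human NCI-H2081 cells, read out with a cell viability assay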
Description: SANGER: Inhibition of human NCI-H2081 cell growth in a cell viability assay.

NCI-H2196 = format: functional, cell-based, Homo sapiens; conditions: read-out: IC50;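 note: cell viability assay used as the readout of growth inhibition in NCI-H2196 cells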
Description: SANGER: Inhibition of human NCI-H2196 cell growth in a cell viability assay.

NCI-H64 = format: functional, cell-based, Homo sapiens;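 note: growth inhibition of NCI-H64 cells, read out with a cell viability assay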
Description: SANGER: Inhibition of human NCI-H64 cell growth in a cell viability assay.

PF-382 = format: functional, cell-based, Homo sapiens
Description: SANGER: Inhibition of human PF-382 cell growth in a cell viability assay.

RL95-2 = format: functional, cell-based, Homo sapiens;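 note: RL95-2 growth inhibition determined through a cell viability readout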
Description: SANGER: Inhibition of human RL95-2 cell growth in a cell viability assay.

SCC-3 = format: functional, cell-based, Homo sapiens;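 note: cell viability assay measuring inhibition of SCC-3 cell growth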
Description: SANGER: Inhibition of human SCC-3 cell growth in a cell viability assay.

SUP-T1 = format: functional, cell-based, Homo sapiens;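 note: growth inhibition of human SUP-T1 cells, read out as cell viability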
Description: SANGER: Inhibition of human SUP-T1 cell growth in a cell viability assay.

BOKU = format: functional, cell-based; conditions: Homo sapiens;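 note: growth inhibition of the human BOKU cell line, read out by a cell viability assay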
Description: SANGER: Inhibition of human BOKU cell growth in a cell viability assay.

TUR = format: functional, cell-based, Homo sapiens;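 note: growth inhibition of human TUR cells, read out with a cell viability assay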
Description: SANGER: Inhibition of human TUR cell growth in a cell viability assay.

U-698-M = format: functional, cell-based, Homo sapiens
Description: SANGER: Inhibition of human U-698-M cell growth in a cell viability assay.

Measured: pIC50

NC1(c2ccc(-c3nc4ccn5c(=O)[nH]nc5c4cc3-c3ccccc3)cc2)CCC1 [MK-2206]
6.02: MFE-280
5.49: DOK
5.42: RVH-421
5.71: SW1088
6.01: NCI-H520
5.64: OAW-28
6.55: T47D
< 5.40: Ca-Ski | GP5d | HCC1569 | HO-1-N-1 | HT1197 | HuP-T4 | IGR-1 | KYSE-520 cell line | LU-99A | M14 | MDA-MB-231 | MOLT-13 | NB14; Homo sapiens, NB14 | NCI-H1573 | NCI-H1755 | NCI-H1993 | NCI-H2087 | NCI-H2342 | NCI-H292 | OVCAR-5 | RPMI-2650 | S-117 | SBC-5 | SK-OV-3 | SW48 | CWR22R | 639-V | C32 | CAL-120 | CAL-27 | CAL-62 | UACC-62 | VMRC-RCZ | CHL-1
6.26: IGROV-1
5.54: SNU-423
6.19: DU-145
6.66: ASPC1

CN(C)CCOc1ccc(-c2nc(-c3ccncc3)c(-c3ccc4c(c3)CC/C4=N\O)[nH]2)cc1 [SB590885]
5.36: NCI-H292
7.09: M14
< 5.30: Ca-Ski | DOK | DU-145 | GP5d | HCC1569 | HO-1-N-1 | HT1197 | HuP-T4 | IGR-1 | IGROV-1 | KYSE-520 cell line | LU-99A | MDA-MB-231 | MFE-280 | MOLT-13 | NB14; Homo sapiens, NB14 | NCI-H1573 | NCI-H1755 | NCI-H1993 | NCI-H2087 | NCI-H2342 | NCI-H520 | OAW-28 | OVCAR-5 | RPMI-2650 | S-117 | SBC-5 | SK-OV-3 | SNU-423 | SW1088 | SW48 | T47D | CWR22R | 639-V | ASPC1 | CAL-120 | CAL-27 | CAL-62 | UACC-62 | VMRC-RCZ | CHL-1
6.21: RVH-421
7.00: C32

C=CC(=O)N1CCCC(Nc2nc(Nc3ccc(N(C)C(=O)CC)cc3)nc3[nH]cnc23)C1 (stereo unspecified)
< 4.99: EC-GI-10; Homo sapiens, EC-GI-10 | K052; Homo sapiens, K052 | NB14; Homo sapiens, NB14 | NCI-H1417; Homo sapiens, NCI-H1417 | NCI-H2081; Homo sapiens, NCI-H2081 | NCI-H2196; Homo sapiens, NCI-H2196 | NCI-H64; Homo sapiens, NCI-H64 | PF-382; Homo sapiens, PF-382 | RL95-2; Homo sapiens, RL95-2 | SCC-3; Homo sapiens, SCC-3 | SUP-T1; Homo sapiens, SUP-T1 | BOKU | TUR; Homo sapiens, TUR | U-698-M; Homo sapiens, U-698-M

COc1cc(N2CCC(N3CCN(C)CC3)CC2)ccc1Nc1ncc(Cl)c(Nc2ccccc2S(=O)(=O)C(C)C)n1 [TAE-684]
< 5.70: EC-GI-10; Homo sapiens, EC-GI-10 | K052; Homo sapiens, K052 | NCI-H1417; Homo sapiens, NCI-H1417 | NCI-H2081; Homo sapiens, NCI-H2081 | NCI-H2196; Homo sapiens, NCI-H2196 | NCI-H64; Homo sapiens, NCI-H64 | SUP-T1; Homo sapiens, SUP-T1 | BOKU | TUR; Homo sapiens, TUR | U-698-M; Homo sapiens, U-698-M
> 8.11: SCC-3; Homo sapiens, SCC-3
6.36: NB14; Homo sapiens, NB14
5.80: PF-382; Homo sapiens, PF-382
6.30: RL95-2; Homo sapiens, RL95-2

CC(C)C[C@@H](C=O)NC(=O)[C@H](CC(C)C)NC(=O)[C@H](CC(C)C)NC(=O)OCc1ccccc1 [MG-132] (Cbz-Leu-Leu-Leu-aldehyde)
6.78 and 6.23: PF-382; pf-382
6.54 and < 6.00: K052; k052
< 6.00: EC-GI-10; Homo sapiens, EC-GI-10 | EC-GI-10; ec-gi-10 | NB14; nb14 | NCI-H1417; nci-h1417 | NCI-H2081; nci-h2081 | NCI-H2196; Homo sapiens, NCI-H2196 | NCI-H2196; nci-h2196 | NCI-H64; nci-h64 | RL95-2; rl95-2 | SCC-3; Homo sapiens, SCC-3 | SCC-3; scc-3 | SUP-T1; Homo sapiens, SUP-T1 | SUP-T1; sup-t1 | BOKU | TUR; tur | U-698-M; u-698-m
